Assay results: the supplement of paper PMC10307832

Assays:
Experiment in all cases: relative viability (nuclei count vs DMSO), 5 days (fraction); higher = more cells survive
Metformin + Navitoclax = compound: CN(C)C(=N)NC(=N)N [Metformin] + CC1(C)CCC(c2ccc(Cl)cc2)=C(CN2CCN(c3ccc(C(=O)NS(=O)(=O)c4ccc(N[C@H](CCN5CCOCC5)CSc5ccccc5)c(S(=O)(=O)C(F)(F)F)c4)cc3)CC2)C1 [Navitoclax] (partner 0.5 µM)
Summary of the method: (§1)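 The day after seeding in 1536-well plates, lung cancer cell lines were treated by pin tool with a single drug, or with a fixed anchor-drug dose together with five library-drug doses (not always all listed) in √10 steps. After 5 days, a combined fix-and-stain solution (final 0.05% Triton X-100, 1% formaldehyde, 1 ug/ml Hoechst) was added. Nuclei counted on 4× images gave relative viability as treated counts over vehicle counts, reported as the median of duplicate plates.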

Metformin = compound: CN(C)C(=N)NC(=N)N [Metformin]
Summary of the method: (§2)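 Viability here means nuclei in treated wells divided by nuclei in vehicle wells, reported as the median across plates. Only plates with control CV below 25% and at least one doubling passed. Lung cancer cell lines in 1536-well plates were exposed to five √10-spaced library-drug doses for 5 days and counted from 4× Hoechst images in MetaXpress.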

Apatinib = compound: N#CC1(c2ccc(NC(=O)c3cccnc3NCc3ccncc3)cc2)CCCC1 [Apatinib]
Summary of the method: as §2

Metformin + Foretinib = compound: CN(C)C(=N)NC(=N)N [Metformin] + COc1cc2c(Oc3ccc(NC(=O)C4(C(=O)Nc5ccc(F)cc5)CC4)cc3F)ccnc2cc1OCCCN1CCOCC1 [Foretinib] (partner 0.25 µM)
Summary of the method: as §1

Cell Line	relative viability (Metformin + Navitoclax; first compound 10 µM)	relative viability (Metformin + Navitoclax; first compound 31.62 µM)	relative viability (Metformin + Navitoclax; first compound 100 µM)	relative viability (Metformin + Navitoclax; first compound 316.23 µM)	relative viability (Metformin + Navitoclax; first compound 1000 µM)	relative viability (Metformin; 10 µM)	relative viability (Metformin; 31.62 µM)	relative viability (Metformin; 100 µM)	relative viability (Metformin; 316.23 µM)	relative viability (Metformin; 1000 µM)	relative viability (Apatinib; 0.08 µM)	relative viability (Apatinib; 0.253 µM)	relative viability (Apatinib; 0.8 µM)	relative viability (Apatinib; 2.53 µM)	relative viability (Apatinib; 8 µM)	relative viability (Metformin + Foretinib; first compound 10 µM)	relative viability (Metformin + Foretinib; first compound 31.62 µM)	relative viability (Metformin + Foretinib; first compound 100 µM)	relative viability (Metformin + Foretinib; first compound 316.23 µM)	relative viability (Metformin + Foretinib; first compound 1000 µM)
HCC-44	0.99	1.08	0.957	0.888	1.06	0.938	0.997	1.02	0.909	0.956	0.959	0.941	0.95	0.913	0.922	–	–	–	–	–
HOP-62	0.922	0.845	1.04	0.989	0.986	0.856	1.02	1.02	0.917	1.03	0.964	0.924	0.985	0.859	0.922	0.882	1.08	1.08	0.985	1
NCI-H358	–	–	–	–	–	0.939	1.09	1.03	0.98	1.09	0.987	1.03	0.962	0.961	0.877	0.726	0.723	0.658	0.732	0.813
NCI-H596	0.985	1.15	1.1	0.908	1	1.17	1.14	1.02	1.06	1.09	0.939	1.03	0.94	0.911	0.882	0.832	0.855	0.85	0.861	0.89
ABC-1	–	–	–	–	–	0.847	1.2	0.965	0.948	0.448	–	1.06	0.86	0.911	0.703	1.48	1.14	1.05	1.02	0.287
SW 900	–	–	–	–	–	1.08	1.15	0.779	0.933	1.07	1	0.87	0.858	0.615	0.825	0.919	0.884	0.736	0.846	0.882
NCI-H1734	0.882	0.863	0.908	0.822	0.905	1.01	1.03	1.04	1.01	1.02	1.18	0.987	0.991	0.909	0.845	0.844	0.896	0.95	0.798	0.935
HARA	1.13	1.1	1.2	1.02	1.16	1.12	1.26	1.13	1.06	1.13	1.33	0.93	1	0.742	1.04	–	1.03	1.21	1	1.09
NCI-H1703	1.18	1.15	1.16	0.854	0.735	1.3	1.42	0.998	1.06	1.19	0.784	0.769	0.355	0.199	0.19	0.497	0.504	0.549	0.474	0.496
A549	0.895	1.03	1.04	0.843	0.297	0.896	0.976	0.923	0.849	0.996	1.02	1.04	1.02	0.903	0.909	0.867	0.9	0.9	0.853	0.944
NCI-H1915	–	0.794	0.702	0.749	0.806	–	0.998	1.02	0.968	1.01	1.06	0.959	0.963	0.879	0.821	–	1.04	1.15	1.07	1.18
NCI-H1355	0.936	1.02	0.955	0.719	0.903	0.838	0.953	0.963	0.992	1.05	0.993	0.962	0.956	0.9	0.885	0.941	1.05	0.998	0.972	0.99
NCI-H1650	1.16	1.34	1.46	1.37	1.1	1.09	0.865	1.17	1.03	0.931	0.904	1.01	0.86	0.832	0.824	1.41	1.34	1.42	1.3	1.18
HCC-78	0.994	1.17	1.01	1	1.06	0.857	1.03	1.27	0.968	1.14	0.967	0.847	1.01	0.803	0.858	0.752	0.674	0.894	0.662	0.79
NCI-H1666	1.17	1.05	0.956	0.899	1.07	0.938	1.11	0.971	1.07	1.09	1.01	0.958	0.969	0.997	0.986	1.03	1.03	1.08	1.03	1.09
HCC-15	0.686	0.726	0.719	0.618	0.699	–	1.08	1	0.926	1.05	1.1	0.978	0.971	0.909	0.841	–	1.06	1.1	0.905	0.911
EKVX	0.681	0.889	0.968	0.779	0.948	0.756	0.95	1.07	0.922	1.03	0.869	0.904	0.984	0.873	0.877	0.456	1.03	0.886	–	0.303
